According to paper PMC5863496, “Mesobuthus Venom-Derived Antimicrobial Peptides Possess Intrinsic Multifunctionality and Differential Potential as Drugs” (Frontiers in Microbiology, 2018):
Ends that are not written are not given here.

Legend:
Test in all cases: Inhibition-zone assay (CL)
Assay type in all cases: cell-based
[1] = test system: Bacillus cereus CGMCC 1.1846; settings: BC CGMCC 1.1846, N.A. = no activity at 0.8 nmol peptide each well
Summary of the method: (§1)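 Bacteria (~2 × 10^6 cells/ml) were seeded in 0.8% soft-agar medium (LB, Nutrient Broth or GYM) and grown at 30 or 37°C. Three peptide doses were placed in separate 2 mm wells, and inhibition zones were measured after overnight incubation. CL was calculated from the slope and intercept of a d^2 versus log n plot.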

[2] = test system: Streptomyces scabiei CGMCC 4.1765; settings: SSCA CGMCC 4.1765, N.A. = no activity at 0.8 nmol peptide each well
Summary of the method: as §1

[3] = test system: Staphylococcus aureus J706; settings: SA J706, N.A. = no activity at 0.8 nmol peptide each well
Summary of the method: as §1

Escherichia coli TOP10 = settings: EC TOP10, N.A. = no activity at 0.8 nmol peptide each well
Summary of the method: as §1

[4] = test system: Streptomyces griseus NBRC 13350; settings: SG NBRC 13350, N.A. = no activity at 0.8 nmol peptide each well
Summary of the method: as §1

[5] = test system: Salmonella enterica ATCC 14028; settings: SE ATCC 14028, N.A. = no activity at 0.8 nmol peptide each well
Summary of the method: as §1

[6] = test system: Staphylococcus aureus J708; settings: SA J708, N.A. = no activity at 0.8 nmol peptide each well
Summary of the method: as §1

Escherichia coli D. J45b = settings: EC D. J45b, N.A. = no activity at 0.8 nmol peptide each well
Summary of the method: as §1

[7] = test system: Staphylococcus aureus J710; settings: SA J710, N.A. = no activity at 0.8 nmol peptide each well
Summary of the method: as §1

[8] = test system: Pseudomonas aeruginosa 11092618; settings: PA 11092618, N.A. = no activity at 0.8 nmol peptide each well
Summary of the method: as §1

[9] = test system: Pseudomonas aeruginosa QT1; settings: PA QT1, N.A. = no activity at 0.8 nmol peptide each well
Summary of the method: as §1

[10] = test system: Pseudomonas aeruginosa 11082603; settings: PA 11082603, N.A. = no activity at 0.8 nmol peptide each well
Summary of the method: as §1

[11] = test system: Alcaligenes faecalis CGMCC 1.1837; settings: AF CGMCC 1.1837, N.A. = no activity at 0.8 nmol peptide each well
Summary of the method: as §1

[12] = test system: Pseudomonas aeruginosa DH; settings: PA DH, N.A. = no activity at 0.8 nmol peptide each well
Summary of the method: as §1

[13] = test system: Pseudomonas aeruginosa 14; settings: PA 14, N.A. = no activity at 0.8 nmol peptide each well
Summary of the method: as §1

[14] = test system: Pseudomonas aeruginosa 11082616; settings: PA 11082616, N.A. = no activity at 0.8 nmol peptide each well
Summary of the method: as §1

[15] = test system: Pseudomonas aeruginosa 11092304; settings: PA 11092304, N.A. = no activity at 0.8 nmol peptide each well
Summary of the method: as §1

Candida albicans JX1016 = settings: CA JX1016, 28°C, N.A. = no activity at 0.8 nmol peptide each well
Candida albicans JX1017 = settings: CA JX1017, 28°C, N.A. = no activity at 0.8 nmol peptide each well
Candida albicans 4259 = settings: CA 4259, 28°C, N.A. = no activity at 0.8 nmol peptide each well
Candida albicans SZ56 = settings: CA SZ56, 28°C, N.A. = no activity at 0.8 nmol peptide each well
[16] = test system: Geotrichum candidum CCTCC AY 93038; settings: GC CCTCC AY 93038, 28°C, N.A. = no activity at 0.8 nmol peptide each well
[17] = test system: Saccharomyces cerevisiae CCTCC AY 92003; settings: SC CCTCC AY 92003, 28°C, N.A. = no activity at 0.8 nmol peptide each well
Candida albicans 4257 = settings: CA 4257, 28°C, N.A. = no activity at 0.8 nmol peptide each well
Candida albicans 4247 = settings: CA 4247, 28°C, N.A. = no activity at 0.8 nmol peptide each well

Molecule | Lethal concentration (CL) [1] | Lethal concentration (CL) [2] | Lethal concentration (CL) [3] | Lethal concentration (CL) (Escherichia coli TOP10) | Lethal concentration (CL) [4] | Lethal concentration (CL) [5] | Lethal concentration (CL) [6] | Lethal concentration (CL) (Escherichia coli D. J45b) | Lethal concentration (CL) [7] | Lethal concentration (CL) [8] | Lethal concentration (CL) [9] | Lethal concentration (CL) [10] | Lethal concentration (CL) [11] | Lethal concentration (CL) [12] | Lethal concentration (CL) [13] | Lethal concentration (CL) [14] | Lethal concentration (CL) [15] | Lethal concentration (CL) (Candida albicans JX1016) | Lethal concentration (CL) (Candida albicans JX1017) | Lethal concentration (CL) (Candida albicans 4259) | other results
CC[C@H](C)[C@H](NC(=O)CN)C(=O)NCC(=O)N[C@@H](C)C(=O)N[C@H](C(=O)N[C@@H](CC(C)C)C(=O)N[C@@H](CCCCN)C(=O)N[C@H](C(=O)N[C@@H](CC(C)C)C(=O)N[C@H](C(=O)N[C@H](C(=O)NCC(=O)N[C@@H](CC(C)C)C(=O)N1CCC[C@H]1C(=O)N[C@@H](C)C(=O)N[C@@H](CC(C)C)C(=O)N[C@H](C(=O)N[C@@H](CO)C(=O)N[C@@H](Cc1c[nH]c2ccccc12)C(=O)N[C@H](C(=O)N[C@@H](CCCCN)C(=O)N[C@@H](CCCNC(=N)N)C(=O)N[C@@H](CCCCN)C(=O)N[C@@H](CCCNC(=N)N)C(=O)N[C@@H](CCC(N)=O)C(=O)N[C@@H](CCC(N)=O)C(N)=O)[C@@H](C)CC)[C@@H](C)CC)[C@@H](C)O)[C@@H](C)O)C(C)C)C(C)C [Melittin, reference compound] | 24.74 µM | 15.93 µM | 16.41 µM | 13.80 µM | 28.79 µM | 24.74 µM | 7.80 µM | 24.54 µM | 8.98 µM | – | – | – | – | – | – | – | – | – | – | – | –
FFGHLFKLATKIIPSFFRRKNQ [MAC-22] | – | – | – | – | – | 16.37 µM | – | 6.78 µM | – | 19.08 µM | 10.98 µM | 14.35 µM | 11.13 µM | 11.13 µM | 6.78 µM | 19.08 µM | 24.82 µM | – | – | – | –
FFGHLFKLATKIIPSLFQ [MUC-18, reference compound] | – | 4.45 µM | 4.86 µM | – | 31.40 µM | 35.64 µM | 6.86 µM | 22.72 µM | 5.16 µM | 31.40 µM | 18.49 µM | – | 18.64 µM | – | 31.40 µM | 31.40 µM | 31.40 µM | – | – | – | –
FFGHLFKLATKIIPSLFQRKKE [MUC-22] | – | – | – | – | – | 14.73 µM | – | 7.49 µM | – | 6.10 µM | 6.10 µM | 6.10 µM | 11.65 µM | 9.93 µM | 4.06 µM | 10.02 µM | 10.02 µM | – | – | – | –
FLFSLIPSAISGLINAFK-NH2 [MeuFSPL-2] | 19.57 µM | 7.75 µM | 7.04 µM | 11.58 µM | – | – | 6.21 µM | – | 7.04 µM | – | – | – | – | – | – | – | – | 23.35 µM | 11.10 µM | 12.61 µM | Lethal concentration (CL) (Candida albicans SZ56): 14.80 µM; Lethal concentration (CL) [16]: 24.94 µM; Lethal concentration (CL) [17]: 11.62 µM; Lethal concentration (CL) (Candida albicans 4257): 12.72 µM; Lethal concentration (CL) (Candida albicans 4247): 7.02 µM
FLFSLIPSAISGLISAFK-NH2 [MeuFSPL-1] | 15.33 µM | 1.77 µM | 10.92 µM | 9.94 µM | 6.81 µM | – | 10.92 µM | – | 10.92 µM | – | – | – | – | – | – | – | – | 28.38 µM | 11.72 µM | 14.80 µM | Lethal concentration (CL) (Candida albicans SZ56): 21.82 µM; Lethal concentration (CL) [16]: 17.70 µM; Lethal concentration (CL) [17]: 25.00 µM; Lethal concentration (CL) (Candida albicans 4257): 14.64 µM; Lethal concentration (CL) (Candida albicans 4247): 15.28 µM
FLFSLIPSAISGLISAFKGRRKRDLN-NH2 [MarMEL] | 6.69 µM | 1.56 µM | 8.41 µM | 4.10 µM | 5.19 µM | 1.61 µM | 4.69 µM | 6.24 µM | 8.41 µM | 8.41 µM | 14.29 µM | 8.41 µM | – | 14.29 µM | – | 8.41 µM | 24.95 µM | 14.29 µM | 4.07 µM | 5.17 µM | Lethal concentration (CL) (Candida albicans SZ56): 8.49 µM; Lethal concentration (CL) [16]: 6.34 µM; Lethal concentration (CL) [17]: 7.72 µM; Lethal concentration (CL) (Candida albicans 4257): 6.84 µM; Lethal concentration (CL) (Candida albicans 4247): 7.04 µM
